Test system: crude enzymes (CEs) of Sphingopyxis sp. USTB-05
Format: in vitro ADME
Conditions: NOD 11.6 mg/L with CEs 570 mg/L protein, 30 °C, HPLC-UV 238 nm; for fate of the biodegradation product in the presence of CEs: followed to 36 h
Protocol: Bacterial cells of USTB-05 in the logarithmic growth phase of the third day were harvested by centrifugation at 8000 r/min for 20 min at room temperature. The bacterial pellet was subsequently washed three times with 50 mM phosphate buffer solution (PBS, pH 7.0). Afterwards, the cells were resuspended in 30 mL PBS, and then disrupted using an ultrasonic disruptor with an output power of 600 W for 15 min in an ice bath. […].
The total biodegradation reaction volume was 5 mL containing 570 mg/L, 380 mg/L, and 211 mg/L proteins in PBS in each 10 mL centrifuge tube, respectively. […]. The reaction was performed at 30 °C and 200 r/min. Samples of 500 μL for each were taken after 0, 3, 6, 12, 24, and 36 h, respectively, and then 5 μL of concentrated hydrochloric acid (36%, v/v) was added to stop the reaction. A control bottle was prepared in the same way without CEs. All samples were centrifuged at 13,000 r/min for 10 min and then the concentrations of residual NOD and its products in supernatants were analyzed using HPLC. All experiments were carried out in triplicate.
NOD and its enzymatic biodegradation products were firstly analyzed using a HPLC system (Shimadzu LC-10ATVP, Shimadzu Co., Ltd., Kyoto, Japan) with an ultraviolet (UV) Diode Array Detector at 238 nm using a Agilent TC-C18 column (4.6 mm × 250 mm) (Agilent Technologies Inc., 1200 series, Santa Clara, CA, USA). […]. The flow rate was 1 mL/min and the injection amount was 20 μL. The concentration of NOD was determined by calibration of peak area (at 238 nm) with that of the standard NOD. The biodegradation products that contained Adda were monitored by HPLC based on the assumption that their molar absorption coefficient at 238 nm is the same as NOD.

SMILES	time at which the product peak appeared on HPLC during enzymatic biodegradation of NOD [h]	fate of the biodegradation product in the presence of CEs
CC=C(C(=O)N[C@@H](C(=O)O)[C@H](C)C(=O)N[C@@H](CCCNC(=N)N)C(=O)O)N(C)C(=O)CC[C@@H](NC(=O)[C@@H](C)[C@@H](N)/C=C/C(C)=C/[C@H](C)[C@H](Cc1ccccc1)OC)C(=O)O [product A]	3	completely converted to product B
CO[C@@H](Cc1ccccc1)[C@@H](C)/C=C(C)/C=C/[C@H](N)[C@H](C)C(=O)O [product B, (2S,3S,8S,9S)-3-amino-9-methoxy-2,6,8-trimethyl-10-phenyldeca-4(E),6(E)-dienoic acid]	6	always increased over time until 36 h

Reference: article PMC4885035, “Pathway for Biodegrading Nodularin (NOD) by Sphingopyxis sp. USTB-05” (Toxins, 2016)
